From patent US7247321B2, “Skin whitening compositions containing asparagus extract” (Access Business Group International LLC, priority 2003, dated 2007)

Test system: mouse derived immortalized melanocyte cells (M3)
Assay: Suppression of melanogenesis in vitro (melanin extracted, optical density at 405 nm; visual count of melanized cells)
Assay type: cell-based
Settings: Treatment Dose 0.100%; M3 melanocytes, treated days 1, 3, 5; melanin extracted day 6, OD 405 nm

## O=C1O[C@H]([C@@H](O)CO)C(O)=C1O [Ascorbic Acid]
  % Control Melanin: 51%
